# Test results taken from patent EP0450065A1, “ANTIVIRAL AGENT” (priority 1988, dated 1990).
# Where two headings read alike, the source gives them in different places.
# Key:
# [1] = target: thymidine kinase [TK(v)] (Human herpesvirus 1, UniProt P0DTH5); conditions: viral versus cellular thymidine kinase; cited from earlier work
# [2] = system: herpes simplex virus type 2 (169 strain); assay: Control of CPE (cytopathic effect) manifestation in vero cells; assay type: cell-based; design: key to Cytopathic effect [CPE] (3days) Average / Cytopathic effect [CPE] (5days) Average / Cytopathic effect [CPE] (6days) Average: CPE score 0-3: 3 = ≥75% cells, 2 = 50%, 1 = 25%, 0 = none; key to Cytopathic effect [CPE] (3days) △CPE / Cytopathic effect [CPE] (5days) △CPE / Cytopathic effect [CPE] (6days) △CPE: difference of mean CPE score (0-3 scale) from untreated control; conditions: HSV-2 (169); for Cytopathic effect [CPE] (3days) △CPE / Cytopathic effect [CPE] (5days) △CPE / Cytopathic effect [CPE] (6days) △CPE: difference from control
# Description: Vero cells cultured and grown in a monolayer on microplates to test for cytopathic effect due to viral infection, with solutions of Compound A diluted to varying ratios and solutions of virus diluted to varying ratios added severally thereto in a volume of 0.1 ml, were cultured under the conditions of 5% CO₂ and 37°C and were examined for CPE manifestation under a microscope. The observation was continued for five to six days.
# The degree of CPE brought about by viral infection was rated on the five-point scale, wherein 3 stands for CPE observed on not less than 75% of cultured cells, 2 for CPE observed on 50% of cultured cells, 1 for CPE observed on 25% of cultured cells, 0.5 for occurrence of one to two extremely minute DPE spots, and 0 for perfect absence of recognizable CPE. The CPE scores obtained at the four holes in each microplate were averaged and the difference of the average from the average obtained in the control (omitting the treatment with a chemical) was reported as ΔCPE.
# In vitro antiviral activity of Compound A against herpes simplex virus type 2 (169 strain) The test was carried out by following the procedure of Example 3.
# [3] = system: vero cells; conditions: african green monkey
# Description: Compound A and Compound B were severally dissolved in distilled water in a concentration of 5 mg/ml, to prepare master solutions. Each of the master solutions was suitably diluted with an Eagle's MEM culture medium containing 10% fetal bovine serum. A 0.2-ml portion of the resultant dilution product was placed on vero cells cultured in advance on a microplate and grown in a monolayer, cultured further thereon at 37°C for three to five days. Samples taken severally after three days'and five days'culture were placed under a microscope and tested for cytopathogenic effect brought about by a chemical agent.
# [4] = system: vero cells; conditions: control ratio on propagation of vero cells, 72hr
# Description: Samples of the control group contained 0.1 ml of a culture solution (an Eagle's MEM culture medium containing 10% fetal bovine serum).
# The test was conducted by using three culture tubes per group, culturing the cells in the tubes at 37°C for three days, and taking count of live cells by the dye-exclusion method.
# Chain of thymidine kinase [TK(v)] (P0DTH5 whole entry): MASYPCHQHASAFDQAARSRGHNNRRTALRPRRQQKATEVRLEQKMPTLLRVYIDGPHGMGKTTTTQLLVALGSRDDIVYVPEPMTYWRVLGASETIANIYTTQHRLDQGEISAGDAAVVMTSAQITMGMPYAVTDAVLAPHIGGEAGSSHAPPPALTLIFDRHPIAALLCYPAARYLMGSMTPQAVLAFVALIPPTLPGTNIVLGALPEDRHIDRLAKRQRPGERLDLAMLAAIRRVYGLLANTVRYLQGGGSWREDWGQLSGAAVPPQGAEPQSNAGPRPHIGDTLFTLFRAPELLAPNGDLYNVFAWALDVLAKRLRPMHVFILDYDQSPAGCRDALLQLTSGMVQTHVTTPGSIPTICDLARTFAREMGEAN
compound,measurement,setting,value
"Nc1nc2c(ncn2COCCO)c(=O)[nH]1 [ACV, acyclovir, reference compound]",affinity for TK(v) as for TK(c),[1],more than 200 times
same,Cytopathic effect [CPE] (3days) Average,"[2]; 100 μg/ml, Example 4",0
same,Cytopathic effect [CPE] (5days) Average,"[2]; 100 μg/ml, Example 4",0
same,Cytopathic effect [CPE] (3days) △CPE,"[2]; 100 μg/ml, Example 4",1.5
same,Cytopathic effect [CPE] (5days) △CPE,"[2]; 100 μg/ml, Example 4",3.05
same,Cytopathic effect [CPE] (3days) Average,"[2]; 100 μg/ml, Example 6",0
same,Cytopathic effect [CPE] (6days) Average,"[2]; 100 μg/ml, Example 6",0
same,Cytopathic effect [CPE] (3days) △CPE,"[2]; 100 μg/ml, Example 6",> 2.5
same,Cytopathic effect [CPE] (6days) △CPE,"[2]; 100 μg/ml, Example 6",3.0
K₅BW₁₂O₄₀.15H₂O [Compound A],maximum nontoxic doses (MNTD),[3],> 200 µg/mL
same,Cellular toxity (3 days) Maximum nontoxic does,[3]; 72 h,>200 µg/mL
same,Cellular toxity (5 days) Maximum nontoxic does,[3]; 120 h,>200 µg/mL
same,Ratio (%),[4]; 100 μg/ml,absolutely no effect
same,Ratio (%),[4]; 200 μg/ml,absolutely no effect
same,Cytopathic effect [CPE] (3days) Average,"[2]; 5 μg/ml, Example 4",1.0
same,Cytopathic effect [CPE] (5days) Average,"[2]; 5 μg/ml, Example 4",2.5
same,Cytopathic effect [CPE] (3days) △CPE,"[2]; 5 μg/ml, Example 4",0.5
same,Cytopathic effect [CPE] (5days) △CPE,"[2]; 5 μg/ml, Example 4",0.5
same,Cytopathic effect [CPE] (3days) Average,"[2]; 10 μg/ml, Example 4",1.0
same,Cytopathic effect [CPE] (5days) Average,"[2]; 10 μg/ml, Example 4",2.0
same,Cytopathic effect [CPE] (3days) △CPE,"[2]; 10 μg/ml, Example 4",0.5
same,Cytopathic effect [CPE] (5days) △CPE,"[2]; 10 μg/ml, Example 4",1.0
same,Cytopathic effect [CPE] (3days) Average,"[2]; 20 μg/ml, Example 4",1.0
same,Cytopathic effect [CPE] (5days) Average,"[2]; 20 μg/ml, Example 4",1.25
same,Cytopathic effect [CPE] (3days) △CPE,"[2]; 20 μg/ml, Example 4",0.5
same,Cytopathic effect [CPE] (5days) △CPE,"[2]; 20 μg/ml, Example 4",1.75
same,Cytopathic effect [CPE] (3days) Average,"[2]; 50 μg/ml, Example 4",0.5
same,Cytopathic effect [CPE] (5days) Average,"[2]; 50 μg/ml, Example 4",0.5
same,Cytopathic effect [CPE] (3days) △CPE,"[2]; 50 μg/ml, Example 4",1.0
same,Cytopathic effect [CPE] (5days) △CPE,"[2]; 50 μg/ml, Example 4",2.5
same,Cytopathic effect [CPE] (3days) Average,"[2]; 100 μg/ml, Example 4",0
same,Cytopathic effect [CPE] (5days) Average,"[2]; 100 μg/ml, Example 4",0
same,Cytopathic effect [CPE] (3days) △CPE,"[2]; 100 μg/ml, Example 4",1.5
same,Cytopathic effect [CPE] (5days) △CPE,"[2]; 100 μg/ml, Example 4",3.05
same,Cytopathic effect [CPE] (3days) Average,"[2]; 100 μg/ml, Example 6",0
same,Cytopathic effect [CPE] (6days) Average,"[2]; 100 μg/ml, Example 6",0
same,Cytopathic effect [CPE] (3days) △CPE,"[2]; 100 μg/ml, Example 6",2.5
same,Cytopathic effect [CPE] (6days) △CPE,"[2]; 100 μg/ml, Example 6",3.0
same,Cytopathic effect [CPE] (3days) Average,"[2]; 200 μg/ml, Example 6",0
same,Cytopathic effect [CPE] (6days) Average,"[2]; 200 μg/ml, Example 6",0
same,Cytopathic effect [CPE] (3days) △CPE,"[2]; 200 μg/ml, Example 6",2.5
same,Cytopathic effect [CPE] (6days) △CPE,"[2]; 200 μg/ml, Example 6",3.0
